In patent US6713266B1 (Isodiagnostika Inc., priority 1998, dated 2004):

Assays:
[1] = test system: MoAb CSA-2G9; experiment: Inhibition ELISA to the CSA-DVS-HSA conjugate, MoAb; assay type: binding, mouse
Description: (§1) Inhibition ELISA Protocol:
(§2) 1. Use Falcon Pro-bind immunoplates.
(§3) 2. Dilute coating antigen to 1 μg/mL in carbonate-bicarbonate buffer. Add 100 μL per well and incubate overnight at 4° C.
(§4) 3. On the same day prepare inhibiting antigen tubes. Aliquot antibodies into glass test tubes. Prepare appropriate antigen concentration in ethanol and add to aliquoted antibody at 10 μL ethanol solution/250 μL antibody. Vortex tubes and incubate overnight at 4° C.
(§5) 4. Shake out wells and wash 3× with 200 μL PBS/0.05% TWEEN™ (polyoxyethylene-sorbitol) (v/v) per well.
(§6) 5. Add 200 μL blocking buffer per well (PBS/2% BSA (w/v)). Incubate 60 min at room temperature.
(§7) 7. Transfer contents of inhibition tubes to antigen-coated plate, 100 μL per well. Incubate 60 min at 37° C.
(§8) 9. Dilute alkaline phosphatase conjugated anti-mouse IgG (Pierce cat#31322) in PBS/0.1% TWEEN™ (polyoxyethylene-sorbitol) (v/v) to 1:5000 concentration. Add 100 μL per well and incubate at 37° C. for 60 min.
(§9) 11. […] Add 100 μL per well and incubate in the dark at room temperature. Absorbance can be read at 405 nm at approximately 15-min intervals.

[2] = test system: MoAb CSA-1H6; experiment: as above; assay type: binding, mouse
Description: as §1, §2, §3, §4, §5, §6, §7, §8, §9

[3] = test system: MoAb AM1-2E10; experiment: as above; assay type: binding, mouse
Description: as §1, §2, §3, §4, §5, §6, §7
(§10) 9. […] Add 100 μL per well and incubate at 37° C. for 60 min.
as §9

[4] = test system: MoAb AM1-7F5; experiment: as above; assay type: binding, mouse
Description: as §1, §2, §3, §4, §5, §6, §7, §10, §9

[5] = test system: Mouse polyclonal sera (CSA-DVS-KLH immunogen); experiment: Inhibition ELISA, CSA-DVS-HSA coated plate, mouse polyclonal sera; assay type: binding
Description: as §1, §2, §3, §4, §5, §6, §7, §10, §9

[6] = test system: Mouse polyclonal sera (AM9-9-DVS-KLH immunogen); experiment: Inhibition ELISA, AM19-9-DVS-HSA coated plate, mouse polyclonal sera; assay type: binding
Description: as §1, §2, §3, §4, §5, §6, §7, §10, §9

[7] = test system: Mouse polyclonal sera (AM19-1-DVS (1) - KLH immunogen); experiment: Inhibition ELISA, AM19-1-DVS (1) HSA coated plate, mouse polyclonal sera; assay type: binding
Description: as §1, §2, §3, §4, §5, §6, §7, §10, §9

[8] = test system: Mouse monoclonal antibody AM19-1-7E12-2; experiment: Antigen panel (direct) ELISA, MoAb tissue culture supernatant; assay type: binding
Description: (§11) 1. Use Falcon Pro-bind immunoplate.
(§12) 2. Dilute coating antigen (Ag) to 1.0 μg/mL in carbonate-bicarbonate buffer. Use glass tubes.
(§13) 3. Add 100 μL to each well of plate. Store overnight at 4° C.
as §5
(§14) 5. Add blocking buffer, 200 μL per well (PBS/2% BSA (w/v)). Incubate for 60 min at 37° C.
(§15) 7. Add 100 μL per well of test antibody appropriately diluted in PBS/0.1% Tween (v/v). Incubate 60 min at 37° C.
(§16) 9. Dilute alkaline phosphatase conjugated anti-mouse IgG (Pierce cat #31322) in PBS/0.1% TWEEN™ (polyoxyethylene-sorbitol) (v/v) to 1:2000 concentration. Add 100 μL per well and incubate at 37° C. for 60 min.
(§17) 10. Wash 3× as in step 4.
as §9
(§18) Spleen cells from mice immunized with the AM19-1-DVS (1) conjugate have been used to prepare MoAb secreting hybridoma cells.

[9] = test system: Mouse monoclonal antibody AM19-1-7E12-1; experiment: as above; assay type: binding
Description: as §11, §12, §13, §5, §14, §15, §16, §17, §9, §18

[10] = test system: Mouse polyclonal sera (AM19-9-DVS-KLH immunogen); experiment: Inhibition ELISA, AM19-9-DVS-HSA coated plates, mouse polyclonal sera; assay type: binding
Description: as §1, §2, §3, §4, §5, §6, §7, §10, §9

[11] = test system: Mouse monoclonal antibody AM1-7F5; experiment: Antigen panel (direct) ELISA, MoAb tissue culture supernatant; assay type: binding
Description: as §11, §12, §13, §5, §14, §15, §16, §17, §9

[12] = test system: Mouse monoclonal antibody CSA-2G9; experiment: as above; assay type: binding
Description: as §11, §12, §13, §5, §14, §15, §16, §17, §9

[13] = test system: Mouse monoclonal antibody AM1-2E10; experiment: as above; assay type: binding
Description: as §11, §12, §13, §5, §14, §15, §16, §17, §9

[14] = test system: Mouse monoclonal antibody CSA-1H6; experiment: as above; assay type: binding
Description: as §11, §12, §13, §5, §14, §15, §16, §17, §9

[15] = test system: Mouse polyclonal sera (AM1-DVS-KLH immunogen); experiment: Inhibition ELISA to the CSA-DVS-HSA conjugate, mouse polyclonal sera; assay type: binding
Description: as §1, §2, §3, §4, §5, §6, §7, §10, §9

[16] = test system: Mouse polyclonal sera (AM19-1-DVS (2) - KLH immunogen); experiment: Antigen panel (direct) ELISA, mouse polyclonal sera; assay type: binding; settings: Mice 3 and 4
Description: as §11, §12, §13, §5, §14, §15, §16, §17, §9
(§19) These serum samples were assayed by direct ELISA for antibody titre to specific haptens.

[17] = test system: Mouse polyclonal sera (AM19-1-DVS (1) - KLH immunogen); experiment: as above; assay type: binding; settings: Mice 1 and 2
Description: as §11, §12, §13, §5, §14, §15, §16, §17, §9, §19

[18] = test system: MoAb AM19-1-7E12-1; experiment: Inhibition ELISA with AM19-1-DVS (1) coated ELISA plates, MoAb; assay type: binding, mouse; settings: AM19-1-7E12-1 TCS
Description: as §1, §2, §3, §4, §5, §6, §7, §10, §9

[19] = test system: MoAb AM19-1-7E12-2; experiment: as above; assay type: binding, mouse; settings: AM19-1-7F12-2
Description: as §1, §2, §3, §4, §5, §6, §7, §10, §9

[20] = test system: Mouse polyclonal sera (AM19-1-DVS (2) - KLH immunogen); experiment: Inhibition ELISA, AM19-1-DVS (2) HSA coated plate, mouse polyclonal sera; assay type: binding
Description: as §1, §2, §3, §4, §5, §6, §7, §10, §9

[21] = test system: Mouse polyclonal sera (CSA-DVS-KLH immunogen); experiment: Antigen panel (direct) ELISA, mouse polyclonal sera; assay type: binding; settings: KLH coated ELISA plates
Description: as §11, §12, §13, §5, §14, §15, §16, §17, §9

[22] = test system: Mouse polyclonal sera (AM1-DVS-KLH immunogens); experiment: as above; assay type: binding
Description: as §11, §12, §13, §5, §14, §15, §16, §17, §9

[23] = test system: Mouse polyclonal sera (AM9-9-DVS-KLH immunogen); experiment: as above; assay type: binding
Description: as §11, §12, §13, §5, §14, §15, §16, §17, §9

[24] = test system: Mouse polyclonal sera (AM19-9-DVS-KLH immunogens); experiment: as above; assay type: binding
Description: as §11, §12, §13, §5, §14, §15, §16, §17, §9

[25] = test system: Rabbit polyclonal sera (AM19-1-DVS-KLH (1) immunogen); experiment: Inhibition ELISA, AM19-1-DVS (1) HSA coated plate, rabbit polyclonal sera; assay type: binding
Description: as §1, §2, §3, §4, §5, §6, §7, §10, §9
The AM19-1-DVS (1) conjugate was also used to immunize rabbits.

[26] = Mouse 1, inhibiting AG conc 0.156 μg/100 μL
[27] = Mouse 1, inhibiting AG conc 0.313 μg/100 μL
[28] = Mouse 1, inhibiting AG conc 1.25 μg/100 μL
[29] = Mouse 1, inhibiting AG conc 5 μg/100 μL
[30] = Mouse 1, inhibiting AG conc 10 μg/100 μL
[31] = Mouse 2, inhibiting AG conc 0.156 μg/100 μL
[32] = Mouse 2, inhibiting AG conc 0.313 μg/100 μL
[33] = Mouse 2, inhibiting AG conc 1.25 μg/100 μL
[34] = Mouse 2, inhibiting AG conc 5 μg/100 μL
[35] = Mouse 2, inhibiting AG conc 10 μg/100 μL

`C=CCC1C=C(C)CC(C)CC(OC)C2OC(O)(C(=O)C(=O)N3CCCCC3C(=O)OC(C(C)=CC3CCC(O)C(OC)C3)C(C)C(O)CC1=NO)C(C)CC2OC` (centres unmarked) [III] was tested, and the “Percent Inhibition” value ([1]; CSA-2G9, Table 24, CSA, CSG and CSA derivative inhibitors) was 21.9%, the “Percent Inhibition” value ([2]; CSA-1H6, Table 24, CSA, CSG and CSA derivative inhibitors) was 5.5% and the “Percent Inhibition” value ([3]; AM1-2E10, Table 24, CSA, CSG and CSA derivative inhibitors) was 17.8%. The “Percent Inhibition” value ([4]; AM1-7F5, Table 24, CSA, CSG and CSA derivative inhibitors) was 16.6%.
“FK-DVS-KLH: FK-DVS-KLH conjugate used as inhibitor” was tested, and the Percent Inhibition [5, 26] was 0%, the Percent Inhibition [5, 27] was 0% and the Percent Inhibition [5, 28] was 0%. It also gave a Percent Inhibition [5, 29] of 0%, a Percent Inhibition [5, 30] of 0% and a Percent Inhibition [5, 31] of 0%. The Percent Inhibition [5, 32] was 0%, the Percent Inhibition [5, 33] was 0% and the Percent Inhibition [5, 34] was 0%. The Percent Inhibition [5, 35] was 0%.
In the case of “KLH: keyhole limpet hemocyanin, protein carrier”, the “Percent Inhibition” value ([6]; Mouse 1) was 12.3%, the “Percent Inhibition” value ([6]; Mouse 2) was 35.8% and the “Percent Inhibition” value ([7]; Mouse 1) was 0%. For the same molecule, the “Percent Inhibition” value ([7]; Mouse 2) was 0%, the Percent reactivity ([8]; AM19-1-7E12-2, OD to test antigen / OD to AM19-1-DVS (1)-HSA × 100) was 0% and the OD ([8]; AM19-1-7E12-2 TCS, coated test antigen) was 0. The Percent reactivity ([9]; AM19-1-7E12-1, OD to test antigen / OD to AM19-1-DVS (1)-HSA × 100) was 0%, the OD ([9]; AM19-1-7E12-1 TCS, coated test antigen) was 0.023 and the “Percent Inhibition of TCS” value ([1]; CSA-2G9 TCS, Table 16, CSA-DVS-HSA conjugate) was 4.8%. For the same molecule, the “Percent Inhibition of TCS” value ([2]; CSA-1H6 TCS, Table 16, CSA-DVS-HSA conjugate) was 0%, the “Percent Inhibition” value ([10]; Mouse 5) was 0% and the “Percent Inhibition” value ([10]; Mouse 6) was 0%. For the same molecule, the Percent Inhibition [5, 26] was 0%, the Percent Inhibition [5, 27] was 0% and the Percent Inhibition [5, 28] was 0%. For the same molecule, the Percent Inhibition [5, 29] was 0%, the Percent Inhibition [5, 30] was 0% and the Percent Inhibition [5, 31] was 0%. It also gave a Percent Inhibition [5, 32] of 0%, a Percent Inhibition [5, 33] of 0% and a Percent Inhibition [5, 34] of 0%. It also gave a Percent Inhibition [5, 35] of 0%, a Percent reactivity ([11]; AM1-7F5, OD to test antigen / OD to CSA-DVS-HSA × 100) of 0% and an OD ([11]; AM1-7F5 TCS, coated test antigen) of 0. For the same molecule, the Percent reactivity ([12]; CSA-2G9, OD to test antigen / OD to CSA-DVS-HSA × 100) was 0%, the OD ([12]; CSA-2G9 TCS, coated test antigen) was 0.026 and the Percent reactivity ([13]; AM1-2E10, OD to test antigen / OD to CSA-DVS-HSA × 100) was 3.9%. For the same molecule, the OD ([13]; AM1-2E10 TCS, coated test antigen) was 0.061, the Percent reactivity ([14]; CSA-1H6, OD to test antigen / OD to CSA-DVS-HSA × 100) was 0% and the OD ([14]; CSA-1H6 TCS, coated test antigen) was 0. The “Percent Inhibition of TCS” value ([3]; AM1-2E10 TCS, Table 18, CSA-DVS-HSA coated plate) was 0%, the “Percent Inhibition of TCS” value ([4]; AM1-7F51, TCS, Table 18, CSA-DVS-HSA coated plate) was 22.5% and the “Percent Inhibition” value ([15]; Mouse 1) was 8.9%. The “Percent Inhibition” value ([15]; Mouse 2) was 5.8%, the “antibody titres to the KLH carrier protein” value [16] was “significant antibody titres” and the “antibody titres to the KLH carrier protein” value [17] was “significant antibody titres”. The “Percent Inhibition of TCS” value [18] was 3.8%, the “Percent Inhibition of TCS” value [19] was 4.3% and the “Percent Inhibition” value ([20]; Mouse 3) was 0%. The “Percent Inhibition” value ([20]; Mouse 4) was 0%, the “antibody response to the KLH carrier” value [21] was “significant response” and the “antibody response to the KLH carrier” value [22] was “significant response”. The “antibody titres to the KLH carrier protein” value [23] was “significant antibody titres”, the “antibody titres to the KLH carrier” value [24] was “Significant antibody titres” and the “Percent Inhibition” value [25] was 0%.
